In one data set the test system is anti-ovalbumin IgG. The data set is described as follows: ELISA of plasma anti-ovalbumin IgG after 3 weekly i.v. injections (FIG. 3). The format is in vivo, mouse (C3H/HeJ). For orientation: In an ELISA, binding on a coated surface is turned into a signal by an enzyme label.
The conditions of data set [1]: mouse, in vivo; cited from earlier work.
In a further data set the test system is RES. The settings on record: in vivo; cited from earlier work.

Method for anti-ovalbumin IgG: Groups of four C3H/HeJ mice per experimental point were given the specified treatment as a single i.v. dose via a lateral tail vein. The injection, given in a volume of 200 μL, contained 50 μg of ovalbumin. In animals receiving control (protein free) liposomes, the dose was chosen based on the lipid dose given for the ovalbumin-coated liposome group. This lipid dose was approximately 45 mg/kg. In the groups receiving doxorubicin, the drug dose was approximately 8 mg/kg.
Microtitre plates (Flow Laboratories) were coated with 50 μL of 40 μg/mL ovalbumin and incubated at 4° C. overnight. The plates were washed twice (phosphate buffered saline containing 0.1% (vol/vol) TWEEN® 20) and then blocked with 2% bovine serum albumin (BSA) for 1 hour at 37° C. The plates were rinsed prior to addition of mouse plasma in a final volume of 100 μL (the extent to which the plasma was diluted depended on treatment group). […] Plates were incubated at room temperature for 30 min, washed, and the amount of plate associated β-galactosidase was determined. […] The amount of chlorophenol red produced was determined by measuring absorbance at 570 nm on a […] ® plate reader. Antibody levels were estimated on the basis of standard curves consisting of known quantities of a rabbit polyclonal anti-ovalbumin IgG (Cortex Biochemicals, Calif., USA). […]

For “free ovalbumin: IMJECT® (ovalbumin) obtained from Pierce”, the “anti-ovalbumin IgG level” value with anti-ovalbumin IgG is 2.1 μg/mL plasma.

Turning to liposomal doxorubicin, the maximum tolerated dose result in data set [1] is “greater than 60 mg doxorubicin/kg”. Moreover, in the data set on RES, the “circulation lifetimes for the liposomal carrier” value is on record as “significant increases”; the “liposome accumulation in the liver” value was “significant decreases”; the “spleen and bone marrow cellularity” value was “extended suppression”.

These data come from patent publication US5780054A, “Methods for increasing the circulation half-life of protein-based therapeutics” (University of British Columbia, priority 1996, dated 1998).
